These results are taken from paper PMC8362126, “Proteolysis Targeting Chimera (PROTAC) for Macrophage Migration Inhibitory Factor (MIF) Has Anti‐Proliferative Activity in Lung Cancer Cells” (Angewandte Chemie (International Ed. in English), 2021).

“And” between values parts separate entries of the source, which are not always exact repeats. Identical values can stand only once.

Assay [1] concerns the target T1, MIF (Homo sapiens, UniProt P14174).
T1 sequence (P14174 2-115 limits assumed): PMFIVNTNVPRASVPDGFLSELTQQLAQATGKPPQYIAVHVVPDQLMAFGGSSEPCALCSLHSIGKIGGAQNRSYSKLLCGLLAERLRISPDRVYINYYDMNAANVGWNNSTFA
Kind of assay: MIF degradation in A549 cells, cell lysate-based ELISA. Details: endogenous in cells; host or cells: A549 (ATCC CCL-185). To be noted: A549 cells; for degradation [%] 2 μM: vs DMSO, mean±SD n=3. Here is the method: In addition, A549 cells have been successfully used for assessing activity of cereblon ligand‐based PROTACs previously.[42] Therefore, A549 is a suitable cell line for evaluating the effect of our putative MIF‐directed PROTACs MD1 to MD12 on MIF protein levels. The reduction in MIF levels were monitored in A549 cells that were treated with two different PROTAC concentrations (20 and 2 μM) for 12 h in order to estimate the dose dependency, which is important for PROTACs because of the Hook effect.[35] The MIF levels in cell lysates were analyzed using an enzyme‐linked immunosorbent assay (ELISA).
S3. ELISA screening of MIF protein level on MIF-directed PROTACs
Cell culture. Human A549 lung cancer cells (ATCCCCL-185) or HEK293 kidney […]
containing 10% (v/v) fetal bovine serum (FBS), 100 U/mL penicillin/streptomycin […]
ELISA. 7×10^5 A549 cells per well were plated in 6-well plates. The next day, cells were treated with a solution of compounds or the vehicle for 12 h. Subsequently, the culture medium was removed and cells were washed twice with cold PBS and collected after trypsin (0.5 mL) degestion. Cells were then lyzed in lysis buffer (150 mM NaCl, 50 mM Hepes pH 7.5, 5 mM EDTA, 0.1% (w/v) NP40) containing protease inhibitor cocktail (Roche, #11836153001) and resuspended vigourously. The supernatant was collected after spinning down at 16 000g at 4 °C for 30 min. The total protein concentration was determined with PierceTM BCA protein assay kit ( ThermoFisher , #23225). The protein concentration was normalized between samples. The relative MIF levels from 1µg total protein were determined by ELISA with the human MIF DuoSet ELISA kit according to the instructions of the manufacturer (R&D systems, #DY289).
Figure S1. Screening of compounds for MIF degradation activity by cell lysate -based ELISA.
A549 cells were treated with compounds at (A) 20 or (B) 2 µM for 12 h. Data was normalized […]
(1 picture or pasted object on this page, not shown here)
(In general: In an ELISA, binding on a coated surface is turned into a signal by an enzyme label.)

Assay [2] concerns the target T1, MIF. The assay can be described thus: MIF immunofluorescence staining, confocal microscopy. It counts as cell-based. Details: endogenous in cells; host or cells: A549 (ATCC CCL-185). To be noted: A549 cells, 1 μM, 12 hours. The text has this: Since PROTACs are relatively large heterobifunctional molecules, the efficacy of these compounds may be limited by poor cell permeability.[47] In order to estimate the cellular uptake of PROTAC MD13, the intrinsic fluorescence properties of the pomalidomide part of MD13 were employed for visualization of its subcellular localization. […] In parallel, the subcellular localization of MIF and its decrease in situ upon MD13 treatment was visualized by confocal fluorescence microscopy using a fluorescent secondary antibody.
S5. Subcellular colocalization study
To visualize the intracellular location of MD13 and MIF protein, immunofluorescence staining was applied. A549 cells were seeded on glass coverslips in a 6-well plate at a density of 1x10^5 cells per well. After overnight incubation, cells were treated with 1 µM MD13 for 1 hour to study the internalization of MD13 or 12 hours to study the degradation of MIF protein.
The cells with 1-hour treatment were fixed with methanol before coverslips were mounted onto slides with anti-fading mounting medium with DAPI stain (Invitrogen, Waltham, MA. USA).
To visualize MIF protein, cells after 12-hour treatment were fixed with methanol and then unspecific binding was blocked with blocking buffer (1% BSA, 22.52 mg/mL glycine in 0.1%PBST). […]
USA). […] The pictures were acquired using a Leica SP8 confocal laser scanning microscope and analyzed by ImageJ. […]

Assay [3] deals with T1, MIF. The assay can be described thus: MIF degradation in HEK293 cells, western-blot. Set-up: endogenous in cells. To be noted: 200 nM. It counts as cell-based.

For the compound `CN1C(=O)CCC(N2C(=O)c3cccc(NCCCCCCCC(=O)Nc4ccc(N5Cc6ccc(O)cc6OC5=O)cc4)c3C2=O)C1=O` (stereo not drawn) [MD15], the “degradation [%] 2 μM” value on MIF [1] (12 h) is “not capable of inducing MIF degradation and n.s”.

What is called DC50 is the concentration at which degradation of the target reaches its halfway point. As to `O=C1CCC(N2C(=O)c3cccc(NCCCCCCCC(=O)Nc4ccc(N5Cc6ccc(O)cc6OC5=O)cc4)c3C2=O)C(=O)N1` (stereo not drawn) [MD13], the “MIF depletion in situ” value on MIF [2] is on record as “significantly depleted MIF”. The MIF degradation entry on MIF [3] is “more than 90%”. For the same compound, the “degradation [%] 2 μM” value at MIF [1] (12 h) was 91% and 91±5%. Besides, at MIF [1] (12 h, ELISA, read-out: DC50), the DC50 is approximately 200 nM. Besides, the Hook effect result at MIF [1] (at 20 μM, ELISA and western-blot) is on record as “Hook effect”.
